Consider two compounds from patent EP2338890A1, “4,7-Diazaindole derivatives and their use as fungicides” (Bayer CropScience AG, priority 2009, dated 2011).

One data set has as its system Fusarium proliferatum. Description: microbe, parasite or virus in culture. The data set is classed as cell-based. The conditions noted are these: 120 h, read-out: inhibition of Fumonisin FB1 production.
For a further data set, the system named is Alternaria solani. Description: Alternaria test (tomato) / preventive. In kind it is in vivo. The conditions noted are these: 500ppm of active ingredient, evaluated 7 days after the inoculation. How it is done:
(§1) To produce a suitable preparation of active compound, 1 part by weight of active compound is mixed with the stated amounts of solvent and emulsifier, and the concentrate is diluted with water to the desired concentration.
To test for preventive activity, young plants are sprayed with the preparation of active compound at the stated rate of application. One day after this treatment, the plants are inoculated with an aqueous spore suspension of Alternaria solani. The plants remain for one day in an incubation cabinet at approximately 22°C and a relative atmospheric humidity of 100%. Then the plants are placed in an incubation cabinet at approximately 20°C and a relative atmospheric humidity of 96%.
The test is evaluated 7 days after the inoculation. 0% means an efficacy which corresponds to that of the control while an efficacy of 100% means that no disease is observed.

The test system of another data set is Botrytis cinerea. The experiment in a line: Botrytis test (beans) / protective. In kind it is in vivo. To be noted: 250ppm of active ingredient, lesion size 2 days after the inoculation. As to the method: as §1
To test for protective activity, young plants are sprayed with the preparation of active compound. After the spray coating has dried on, 2 small pieces of agar covered with growth of Botrytis cinerea are placed on each leaf. The inoculated plants are placed in a darkened chamber at 20°C and a relative atmospheric humidity of 100%.
2 days after the inoculation, the size of the lesions on the leaves is evaluated. 0% means an efficacy which corresponds to that of the control, while an efficacy of 100% means that no disease is observed.

The next data set has as its system Pyrenophora teres. The experiment in a line: Pyrenophora test (barley) / preventive. In kind it is in vivo. The conditions noted are these: 500ppm of active ingredient, evaluated 7-9 days after the inoculation. How it is done:
as §1
To test for preventive activity, young plants are sprayed with the preparation of active compound at the stated rate of application. One day after this treatment, the plants are inoculated with an aqueous spore suspension of Pyrenophora teres. The plants remain for 48 hours in an incubation cabinet at 22°C and a relative atmospheric humidity of 100%. Then the plants are placed in a greenhouse at a temperature of approximately 20°C and a relative atmospheric humidity of approximately 80%.
The test is evaluated 7-9 days after the inoculation. 0% means an efficacy which corresponds to that of the control while an efficacy of 100% means that no disease is observed.

Data set [1] deals with Fusarium graminearum. In kind it is in vivo. The conditions noted are these: barley, preventive, 1000ppm of active ingredient, evaluated 5 days after the inoculation.
The next data set concerns Venturia inaequalis. Description: Venturia test (apples) / protective. In kind it is in vivo. To be noted: 100ppm of active ingredient, evaluated 10 days after the inoculation. How it is done: as §1
To test for protective activity, young plants are sprayed with the preparation of active compound at the stated rate of application. After the spray coating has dried on, the plants are inoculated with an aqueous conidia suspension of the causal agent of apple scab (Venturia inaequalis) and then remain for 1 day in an incubation cabinet at approximately 20°C and a relative atmospheric humidity of 100 %.
The plants are then placed in a greenhouse at approximately 21°C and a relative atmospheric humidity of approximately 90 %.
The test is evaluated 10 days after the inoculation. 0% means an efficacy which corresponds to that of the control, while an efficacy of 100% means that no disease is observed.

A short description of data set [2]: logP at pH 3.5, given with the characterisation data. The data set is classed as physicochemical. The conditions noted are these: pH3.5.
Data set [3] deals with Fusarium graminearum. The experiment in a line: microbe, parasite or virus in culture. The data set is classed as cell-based.

Like-named read-outs stand apart in the source and are kept apart here.

Usually logD stands for the decadic logarithm of the distribution of all forms, ionised or not, between an organic phase and buffer at a given pH. Lower therefore signals lower lipophilicity. As for `C#CCn1c(-c2ccncc2)c(-c2ccc(F)cc2)c2nccnc21` [Compound 2, 7-(4-fluorophenyl)-5-(prop-2-ylyl)-6-(pyridin-4-yl)-5H-pyrrolo[2,3-b]pyrazine], the inhibition at 50 µM with Fusarium proliferatum is more than 80%. For the same compound, the efficacy in the data set with Alternaria solani, in the data set on Botrytis cinerea, in the data set on Pyrenophora teres, in the data set with Fusarium graminearum [1] and in the data set with Venturia inaequalis was not below 70% throughout. The pH-dependent lipophilicity (logD) in data set [2] was 2.22.
Take `Fc1ccc(-c2c(-c3ccncc3)[nH]c3nccnc23)cc1` [Compound 1, 7-(4-fluorophenyl)-6-(pyridin-4-yl)-5H-Pyrrolo[2,3-b]pyrazine]: the inhibition at 50 µM was more than 80% in the data set on Fusarium proliferatum; more than 80% in the data set on Fusarium graminearum [3] (72 h, read-out: Growth inhibition of Fusarium graminearum); more than 80% in the data set with Fusarium graminearum [3] (168 h, read-out: inhibition of DON/AcDON). Also, the efficacy in the data set with Alternaria solani and in the data set with Pyrenophora teres was not below 70% each time. The compound further gave a logD in data set [2] of 1.33.
